In patent publication US11117900B2 (Vertex Pharmaceuticals Incorporated, priority 2012, dated 2021):

Tested on: HCT116 colorectal cancer cells
Experiment: Cisplatin sensitization assay (96 h MTS cell viability);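 note: compound concentration needed to lower the IC50 of Cisplatin alone by a set fold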
Assay type: cell-based
Details: Cisplatin sensitization value
How it was run: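 The MTS viability read, after 1 h with reagent, followed 96 h of co-treatment at 37° C. in 5% CO2. Both compound and cisplatin were titrated 2-fold from a 10 μM top final concentration in a complete concentration matrix on HCT116 cells. Scores +++/++/+ reflect cisplatin sensitization value ranges.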

Row | Compound | Cisplatin Sensitization Assay
1 | N#CCc1cnc2c(C(=O)Nc3cnccc3N3CCCCCC3)c(N)nn2c1 [I-N-79, 2-amino-N-(4-(azepan-1-yl)pyridin-3-yl)-6-(cyanomethyl)pyrazolo[1,5-a]pyrimidine-3-carboxamide] | ++ (Compounds with a Cisplatin sensitization value >0.02 μM but <0.2 μM are marked with “++.”)
2 | CN1CCN(c2c(F)cncc2NC(=O)c2c(N)nn3cc(CC#N)cnc23)CC1 [I-N-80, 2-amino-6-(cyanomethyl)-N-(5-fluoro-4-(4-methylpiperazin-1-yl)pyridin-3-yl)pyrazolo[1,5-a]pyrimidine-3-carboxamide] | ++ (Compounds with a Cisplatin sensitization value >0.02 μM but <0.2 μM are marked with “++.”)
3 | N#CCc1cnc2c(C(=O)Nc3cnccc3N3CCOCC3)c(N)nn2c1 [I-N-81, 2-amino-6-(cyanomethyl)-N-(4-morpholinopyridin-3-yl)pyrazolo[1,5-a]pyrimidine-3-carboxamide] | +++ (Compounds with a Cisplatin sensitization value of <0.02 μM are marked with “+++.”)
4 | CN1CCN(c2ccncc2NC(=O)c2c(N)nn3cc(CC#N)cnc23)CC1 [I-N-82, 2-amino-6-(cyanomethyl)-N-(4-(4-methylpiperazin-1-yl)pyridin-3-yl)pyrazolo[1,5-a]pyrimidine-3-carboxamide] | ++ (Compounds with a Cisplatin sensitization value >0.02 μM but <0.2 μM are marked with “++.”)
5 | N#CCc1cnc2c(C(=O)Nc3cnccc3N3CCC(O)CC3)c(N)nn2c1 [I-N-83, 2-amino-6-(cyanomethyl)-N-(4-(4-hydroxypiperidin-1-yl)pyridin-3-yl)pyrazolo[1,5-a]pyrimidine-3-carboxamide] | ++ (Compounds with a Cisplatin sensitization value >0.02 μM but <0.2 μM are marked with “++.”)
6 | N#CCc1cnc2c(C(=O)Nc3cnccc3N3CCCCC3)c(N)nn2c1 [I-N-84, 2-amino-6-(cyanomethyl)-N-(4-(piperidin-1-yl)pyridin-3-yl)pyrazolo[1,5-a]pyrimidine-3-carboxamide] | +++ (Compounds with a Cisplatin sensitization value of <0.02 μM are marked with “+++.”)
7 | CN1CCN(c2c(Cl)cncc2NC(=O)c2c(N)nn3cc(F)cnc23)CC1 [I-N-85, 2-amino-N-(5-chloro-4-(4-methylpiperazin-1-yl)pyridin-3-yl)-6-fluoropyrazolo[1,5-a]pyrimidine-3-carboxamide] | ++ (Compounds with a Cisplatin sensitization value >0.02 μM but <0.2 μM are marked with “++.”)
8 | Nc1nn2cc(Cl)cnc2c1C(=O)Nc1cnccc1N1CCC(N)CC1 [I-N-86, 2-amino-N-(4-(4-aminopiperidin-1-yl)pyridin-3-yl)-6-chloropyrazolo[1,5-a]pyrimidine-3-carboxamide] | +++ (Compounds with a Cisplatin sensitization value of <0.02 μM are marked with “+++.”)
9 | CNC1CCN(c2ccncc2NC(=O)c2c(N)nn3cc(Cl)cnc23)CC1 [I-N-87, 2-amino-6-chloro-N-(4-(4-(methylamino)piperidin-1-yl)pyridin-3-yl)pyrazolo[1,5-a]pyrimidine-3-carboxamide] | ++ (Compounds with a Cisplatin sensitization value >0.02 μM but <0.2 μM are marked with “++.”)
10 | Nc1nn2cc(Cl)cnc2c1C(=O)Nc1cnccc1N1CCNCC1 [I-N-88, 2-amino-6-chloro-N-(4-(piperazin-1-yl)pyridin-3-yl)pyrazolo[1,5-a]pyrimidine-3-carboxamide] | ++ (Compounds with a Cisplatin sensitization value >0.02 μM but <0.2 μM are marked with “++.”)
11 | N#CCc1cnc2c(C(=O)Nc3cnccc3N3CCNCC3)c(N)nn2c1 [I-N-89, 2-amino-6-(cyanomethyl)-N-(4-(piperazin-1-yl)pyridin-3-yl)pyrazolo[1,5-a]pyrimidine-3-carboxamide] | ++ (Compounds with a Cisplatin sensitization value >0.02 μM but <0.2 μM are marked with “++.”)
12 | N#CCc1cnc2c(C(=O)Nc3cnccc3N3CCOC(CN)C3)c(N)nn2c1 (centres unmarked) [I-N-90, 2-amino-N-(4-(2-(aminomethyl)morpholino)pyridin-3-yl)-6-(cyanomethyl)pyrazolo[1,5-a]pyrimidine-3-carboxamide] | + (Compounds with a Cisplatin sensitization value >0.2 μM but <5 μM are marked with “+.”)
13 | NCC1CCN(c2ccncc2NC(=O)c2c(N)nn3cc(Cl)cnc23)CC1 [I-N-91, 2-amino-N-(4-(4-(aminomethyl)piperidin-1-yl)pyridin-3-yl)-6-chloropyrazolo[1,5-a]pyrimidine-3-carboxamide] | ++ (Compounds with a Cisplatin sensitization value >0.02 μM but <0.2 μM are marked with “++.”)
14 | Nc1nn2cc(F)cnc2c1C(=O)Nc1cncc(F)c1N1CCC(C(=O)O)CC1 [I-N-92, 1-(3-(2-amino-6-fluoropyrazolo[1,5-a]pyrimidine-3-carboxamido)-5-fluoropyridin-4-yl)piperidine-4-carboxylic acid] | + (Compounds with a Cisplatin sensitization value >0.2 μM but <5 μM are marked with “+.”)
15 | CN(C)C1CN(C2CCN(c3ccncc3NC(=O)c3c(N)nn4cc(Cl)cnc34)CC2)C1 [I-N-94, 2-amino-6-chloro-N-(4-(4-(3-(dimethylamino)azetidin-1-yl)piperidin-1-yl)pyridin-3-yl)pyrazolo[1,5-a]pyrimidine-3-carboxamide] | +++ (Compounds with a Cisplatin sensitization value of <0.02 μM are marked with “+++.”)
16 | COC1CCN(C2CCN(c3ccncc3NC(=O)c3c(N)nn4cc(Cl)cnc34)CC2)C1 (centres unmarked) [I-N-95, 2-amino-6-chloro-N-(4-(4-(3-methoxypyrrolidin-1-yl)piperidin-1-yl)pyridin-3-yl)pyrazolo[1,5-a]pyrimidine-3-carboxamide] | ++ (Compounds with a Cisplatin sensitization value >0.02 μM but <0.2 μM are marked with “++.”)
17 | CN1CCN(C2CCN(c3ccncc3NC(=O)c3c(N)nn4cc(Cl)cnc34)CC2)CC1 [I-N-97, 2-amino-6-chloro-N-(4-(4-(4-methylpiperazin-1-yl)piperidin-1-yl)pyridin-3-yl)pyrazolo[1,5-a]pyrimidine-3-carboxamide] | +++ (Compounds with a Cisplatin sensitization value of <0.02 μM are marked with “+++.”)
18 | Nc1nn2cc(Cl)cnc2c1C(=O)Nc1cnccc1N1CCC(N2CCC3(COC3)C2)CC1 [I-N-99, N-(4-(4-(2-oxa-6-azaspiro[3.4]octan-6-yl)piperidin-1-yl)pyridin-3-yl)-2-amino-6-chloropyrazolo[1,5-a]pyrimidine-3-carboxamide] | +++ (Compounds with a Cisplatin sensitization value of <0.02 μM are marked with “+++.”)
19 | Nc1nn2cc(Cl)cnc2c1C(=O)Nc1cnccc1N1CCC(N2CC[S+]([O-])CC2)CC1 [I-N-100, 2-amino-6-chloro-N-(4-(4-(1-oxidothiomorpholino)piperidin-1-yl)pyridin-3-yl)pyrazolo[1,5-a]pyrimidine-3-carboxamide] | ++ (Compounds with a Cisplatin sensitization value >0.02 μM but <0.2 μM are marked with “++.”)
20 | Nc1nn2cc(Cl)cnc2c1C(=O)Nc1cnccc1N1CCC(N2CCn3cncc3C2)CC1 [I-N-101, 2-amino-6-chloro-N-(4-(4-(5,6-dihydroimidazo[1,5-a]pyrazin-7(8H)-yl)piperidin-1-yl)pyridin-3-yl)pyrazolo[1,5-a]pyrimidine-3-carboxamide] | ++ (Compounds with a Cisplatin sensitization value >0.02 μM but <0.2 μM are marked with “++.”)
